From ChEMBL document CHEMBL1146786, “Lingshuiol, a novel polyhydroxyl compound with strongly cytotoxic activity from the marine dinoflagellate Amphidinium sp” (Bioorg Med Chem Lett, 2004)

Experiments:
[1] = tested on: HL-60; assay: In vitro cytotoxic activity of compound against HL-60 cell line; assay type: functional, cell-based; settings: Homo sapiens
[2] = tested on: A549; assay: In vitro cytotoxic activity of compound against A-549 cell line; assay type: functional, cell-based; settings: Homo sapiens

`C=CCCCCCCCCCC/C=C/C(O)C(O)C1OC(C(O)C(O)C(=C)CCC(O)C2CC(O)C(O)C(C(O)C(O)/C=C(\C)CC(O)CC(O)C(O)C(O)C(O)C(O)C(C)CC(O)C(O)CC(C)/C=C/CCC(O)CC(=O)/C=C/CCCCC(O)CO)O2)CC(O)C1O` (configuration not stated) [LINGSHUIOL] was tested. Which IC50 [1] did it give?
The IC50 was 230 nM.

And the IC50 [2]?
Its IC50 is 210 nM.
